Numbered stars: 1 amine (or outer) side, 2 acyl side, 3 side chain; on linkers, the order of the positions; unused ones are H or OH. Bridge positions count the residues as written; N and C are the ends. Square brackets hold non-standard residues; d marks the D form. Peptide text beside a SMILES is read from it. * marks the point of attachment. C20 diacid = O=C(O)CCCCCCCCCCCCCCCCCCC(=O)*; γGlu = O=C(O)[C@H](CCC(=O)[*:2])N[*:1]; Hyp = O=C(O)[C@@H]1C[C@@H](O)CN1

The results in this text go back to patent US12139520B2 (priority 2020, dated 2024).

The assay deals with T1, hAMY3 receptor (Homo sapiens, UniProt O60896+P30988).
T1 sequence (P30988 25-474): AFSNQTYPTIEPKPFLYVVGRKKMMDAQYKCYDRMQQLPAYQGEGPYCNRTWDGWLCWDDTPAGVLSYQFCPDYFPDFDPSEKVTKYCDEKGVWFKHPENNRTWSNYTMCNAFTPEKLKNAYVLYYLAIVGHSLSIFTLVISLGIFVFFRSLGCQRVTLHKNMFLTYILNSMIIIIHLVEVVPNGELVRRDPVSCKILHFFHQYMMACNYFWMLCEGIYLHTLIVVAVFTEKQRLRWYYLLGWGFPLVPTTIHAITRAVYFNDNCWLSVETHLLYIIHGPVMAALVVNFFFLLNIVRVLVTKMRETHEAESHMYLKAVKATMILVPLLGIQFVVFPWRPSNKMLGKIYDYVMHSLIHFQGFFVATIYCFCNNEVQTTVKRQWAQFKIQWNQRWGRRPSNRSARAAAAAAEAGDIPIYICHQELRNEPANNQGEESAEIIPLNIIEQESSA
T1 sequence (O60896 24-148 partner): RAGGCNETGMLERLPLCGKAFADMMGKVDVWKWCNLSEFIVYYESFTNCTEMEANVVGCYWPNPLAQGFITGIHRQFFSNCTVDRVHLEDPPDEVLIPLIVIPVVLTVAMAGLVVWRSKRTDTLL
In words: cAMP assay for in vitro receptor activation, hAMY3-R. It is filed as cell-based. The conditions noted are these: cAMP assay, hAMY3 receptor; read-out: hAMY3R EC50. The gist of the method:
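Receptor activation was measured as cAMP accumulation in a monoclonal cell line stably overexpressing hAMY3. Stimulation with graded doses lasted 30 min at room temperature in the presence of 0.5 mM IBMX, with human amylin as positive control.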
On the technique in general: Changes in cAMP serve as a functional read-out for many G protein-coupled receptors.
Regarding `CC[C@H](C)[C@H](NC(=O)[C@H](CCC(N)=O)NC(=O)[C@H](Cc1c[nH]cn1)NC(=O)[C@H](C)NC(=O)[C@H](CC(C)C)NC(=O)[C@H](CCCNC(=N)N)NC(=O)[C@H](CCC(N)=O)NC(=O)[C@@H](NC(=O)[C@@H](NC(=O)[C@@H]1CSSC[C@H](NC(=O)CN)C(=O)N[C@@H](CCCNC(=N)N)C(=O)N[C@@H](Cc2ccccc2)C(=O)NCC(=O)N[C@@H]([C@@H](C)O)C(=O)N1)[C@@H](C)O)C(C)C)C(=O)N[C@@H](Cc1ccc(O)cc1)C(=O)N[C@@H](CCC(N)=O)C(=O)N[C@@H](Cc1ccccc1)C(=O)N[C@H](C(=O)N[C@@H](CC(=O)O)C(=O)N[C@@H](CCCCN)C(=O)N[C@@H](CC(=O)O)C(=O)N[C@@H](CCCCN)C(=O)N[C@@H](CC(=O)O)C(=O)N[C@@H](CC(N)=O)C(=O)N[C@H](C(=O)N[C@@H](C)C(=O)N1CCC[C@H]1C(=O)N[C@@H](CCCNC(=N)N)C(=O)N[C@@H](CO)C(=O)N[C@@H](CCCCN)C(=O)N[C@H](C(=O)N[C@@H](CO)C(=O)N1CCC[C@H]1C(=O)N[C@@H](CCC(N)=O)C(=O)NCC(=O)N[C@@H](Cc1ccc(O)cc1)C(N)=O)C(C)C)C(C)C)[C@@H](C)O` [compound 174] (H-GCRFGTCTVQRLAHQIYQFTDKDKDNVAPRSKVSPQGY-NH2; disulfide 2-7; N-terminus assumed), the concentration for a half-maximal effect (EC50) (in general, the concentration at which the effect is half-maximal) was 71 pM. Next, `CC[C@H](C)[C@H](NC(=O)[C@H](CCCCN)NC(=O)[C@H](CO)NC(=O)[C@H](CCCNC(=N)N)NC(=O)[C@@H]1CCCN1C(=O)[C@H](C)NC(=O)[C@@H](NC(=O)[C@H](CC(N)=O)NC(=O)[C@H](CC(=O)O)NC(=O)[C@H](CCCCN)NC(=O)[C@H](CC(=O)O)NC(=O)[C@H](CCCCN)NC(=O)[C@H](CC(=O)O)NC(=O)[C@@H](NC(=O)[C@H](Cc1ccccc1)NC(=O)[C@H](CCC(N)=O)NC(=O)[C@H](Cc1ccc(O)cc1)NC(=O)[C@@H](NC(=O)[C@H](CCC(N)=O)NC(=O)[C@H](Cc1c[nH]cn1)NC(=O)[C@H](C)NC(=O)[C@H](CC(C)C)NC(=O)[C@H](CCCNC(=N)N)NC(=O)[C@H](CCC(N)=O)NC(=O)[C@@H](NC(=O)[C@@H](NC(=O)[C@@H]1CSSC[C@H](NC(=O)CN)C(=O)N[C@@H](CCCNC(=N)N)C(=O)N[C@@H]([C@@H](C)O)C(=O)NCC(=O)N[C@@H]([C@@H](C)O)C(=O)N1)[C@@H](C)O)C(C)C)[C@@H](C)CC)[C@@H](C)O)C(C)C)C(=O)NCC(=O)N1CCC[C@H]1C(=O)N[C@@H](CCC(N)=O)C(=O)NCC(=O)N1C[C@H](O)C[C@H]1C(N)=O` [compound 179] (H-GCRTGTCTVQRLAHQIYQFTDKDKDNVAPRSKIGPQG[Hyp]-NH2; disulfide 2-7): 82 pM; `CC(C)C[C@H](NC(=O)[C@H](CCCNC(=N)N)NC(=O)[C@H](CCC(N)=O)NC(=O)[C@@H](NC(=O)[C@@H](NC(=O)[C@@H]1CSSC[C@H](NC(=O)CNC(=O)CC[C@H](NC(=O)CCCCCCCCCCCCCCCCCCC(=O)O)C(=O)O)C(=O)N[C@@H](CCCNC(=N)N)C(=O)N[C@@H](Cc2ccccc2)C(=O)NCC(=O)N[C@@H]([C@@H](C)O)C(=O)N1)[C@@H](C)O)C(C)C)C(=O)N[C@@H](C)C(=O)N[C@@H](Cc1c[nH]cn1)C(=O)N[C@@H](Cc1ccccc1)C(=O)N[C@@H](CC(C)C)C(=O)N[C@@H](Cc1ccc(O)cc1)C(=O)N[C@@H](CCC(N)=O)C(=O)N[C@@H](Cc1ccccc1)C(=O)N[C@H](C(=O)N[C@@H](CC(=O)O)C(=O)N[C@@H](CCCCN)C(=O)N[C@@H](CC(=O)O)C(=O)N[C@@H](CCCCN)C(=O)N[C@@H](CC(=O)O)C(=O)N[C@@H](CC(N)=O)C(=O)N[C@H](C(=O)N[C@@H](C)C(=O)N1CCC[C@H]1C(=O)N[C@@H](CCCNC(=N)N)C(=O)N[C@H](C(=O)N[C@@H](CC(N)=O)C(=O)N[C@H](C(=O)NCC(=O)N1CCC[C@H]1C(=O)N[C@@H](CCC(N)=O)C(=O)NCC(=O)N[C@@H](Cc1ccc(O)cc1)C(N)=O)C(C)C)[C@@H](C)O)C(C)C)[C@@H](C)O` [compound 200] ({C20 diacid-γGlu}-GCRFGTCTVQRLAHFLYQFTDKDKDNVAPRTNVGPQGY-NH2; disulfide 2-7): 126 pM. Next, `CC(C)C[C@H](NC(=O)[C@H](CCCNC(=N)N)NC(=O)[C@H](CCC(N)=O)NC(=O)[C@@H](NC(=O)[C@@H](NC(=O)[C@@H]1CSSC[C@H](NC(=O)CNC(=O)CC[C@H](NC(=O)CCCCCCCCCCCCCCCCCCC(=O)O)C(=O)O)C(=O)N[C@@H](CCCNC(=N)N)C(=O)N[C@@H](Cc2ccccc2)C(=O)NCC(=O)N[C@@H]([C@@H](C)O)C(=O)N1)[C@@H](C)O)C(C)C)C(=O)N[C@@H](C)C(=O)N[C@@H](Cc1c[nH]cn1)C(=O)N[C@@H](Cc1ccccc1)C(=O)N[C@@H](CC(C)C)C(=O)N[C@@H](Cc1ccc(O)cc1)C(=O)N[C@@H](CCC(N)=O)C(=O)N[C@@H](Cc1ccccc1)C(=O)N[C@H](C(=O)N[C@@H](CC(=O)O)C(=O)N[C@@H](CCCCN)C(=O)N[C@@H](CC(=O)O)C(=O)N[C@@H](CCCCN)C(=O)N[C@@H](CC(=O)O)C(=O)N[C@@H](CC(N)=O)C(=O)N[C@H](C(=O)N[C@@H](C)C(=O)N1CCC[C@H]1C(=O)N[C@@H](CCCNC(=N)N)C(=O)N[C@H](C(=O)N[C@@H](CCCCN)C(=O)N[C@H](C(=O)NCC(=O)N[C@@H](CO)C(=O)N[C@@H](CC(N)=O)C(=O)NCC(=O)N[C@@H](Cc1ccc(O)cc1)C(N)=O)C(C)C)[C@@H](C)O)C(C)C)[C@@H](C)O` [compound 223] ({C20 diacid-γGlu}-GCRFGTCTVQRLAHFLYQFTDKDKDNVAPRTKVGSNGY-NH2; disulfide 2-7): 186 pM. Consider `CC[C@H](C)[C@H](NC(=O)[C@H](CCC(N)=O)NC(=O)[C@H](Cc1c[nH]cn1)NC(=O)[C@H](C)NC(=O)[C@H](CC(C)C)NC(=O)[C@H](CCCNC(=N)N)NC(=O)[C@H](CCC(N)=O)NC(=O)[C@@H](NC(=O)[C@@H](NC(=O)[C@@H]1CSSC[C@H](NC(=O)[C@@H](N)CCCCN)C(=O)N[C@@H](CC(N)=O)C(=O)N[C@@H](Cc2ccccc2)C(=O)N[C@@H](C)C(=O)N[C@@H]([C@@H](C)O)C(=O)N1)[C@@H](C)O)C(C)C)C(=O)N[C@@H](Cc1ccc(O)cc1)C(=O)N[C@@H](CCC(N)=O)C(=O)N[C@@H](Cc1ccccc1)C(=O)N[C@H](C(=O)N[C@@H](CC(=O)O)C(=O)N[C@@H](CCCCN)C(=O)N[C@@H](CC(=O)O)C(=O)N[C@@H](CCCCN)C(=O)N[C@@H](CC(=O)O)C(=O)N[C@@H](CC(N)=O)C(=O)N[C@H](C(=O)N[C@@H](C)C(=O)N1CCC[C@H]1C(=O)N[C@@H](CCCNC(=N)N)C(=O)N[C@H](C(=O)N[C@@H](CCCCN)C(=O)N[C@H](C(=O)NCC(=O)N[C@@H](CO)C(=O)N[C@@H](CC(N)=O)C(=O)NCC(=O)N[C@@H](Cc1ccc(O)cc1)C(N)=O)C(C)C)[C@@H](C)O)C(C)C)[C@@H](C)O` [compound 361] (H-KCNFATCTVQRLAHQIYQFTDKDKDNVAPRTKVGSNGY-NH2; disulfide 2-7; N-terminus assumed), for which the EC50 came out at 6 pM. Next, `CC[C@H](C)[C@H](NC(=O)[C@H](CCCCN)NC(=O)[C@H](CO)NC(=O)[C@H](CCCNC(=N)N)NC(=O)[C@@H]1CCCN1C(=O)[C@H](C)NC(=O)[C@@H](NC(=O)[C@H](CC(N)=O)NC(=O)[C@H](CC(=O)O)NC(=O)[C@H](CCCCN)NC(=O)[C@H](CC(=O)O)NC(=O)[C@H](CCCCN)NC(=O)[C@H](CC(=O)O)NC(=O)[C@@H](NC(=O)[C@H](Cc1ccccc1)NC(=O)[C@H](CCC(N)=O)NC(=O)[C@@H](NC(=O)[C@H](CC(C)C)NC(=O)[C@H](Cc1ccccc1)NC(=O)[C@H](CC(N)=O)NC(=O)[C@H](C)NC(=O)[C@H](CC(C)C)NC(=O)[C@H](CCCNC(=N)N)NC(=O)[C@H](CCC(N)=O)NC(=O)[C@@H](NC(=O)[C@H](C)NC(=O)[C@@H]1CSSC[C@H](NC(=O)[C@@H](N)CCCCN)C(=O)N[C@@H](CC(N)=O)C(=O)N[C@@H](Cc2ccccc2)C(=O)N[C@@H](C)C(=O)N[C@@H]([C@@H](C)O)C(=O)N1)[C@@H](C)O)C(C)C)[C@@H](C)O)C(C)C)C(=O)NCC(=O)N1CCC[C@H]1C(=O)N[C@@H](CCC(N)=O)C(=O)NCC(=O)N[C@@H](Cc1ccc(O)cc1)C(N)=O` [compound 363] (H-KCNFATCATQRLANFLVQFTDKDKDNVAPRSKIGPQGY-NH2; disulfide 2-7; N-terminus assumed): 10 pM. Next, `CC[C@H](C)[C@H](NC(=O)[C@H](CC(N)=O)NC(=O)[C@@H](NC(=O)[C@H](CCCNC(=N)N)NC(=O)[C@@H]1CCCN1C(=O)[C@H](C)NC(=O)[C@@H](NC(=O)[C@H](CC(N)=O)NC(=O)[C@H](CC(=O)O)NC(=O)[C@H](CCCCN)NC(=O)[C@H](CC(=O)O)NC(=O)[C@H](CCCCN)NC(=O)[C@H](CC(=O)O)NC(=O)[C@@H](NC(=O)[C@H](Cc1ccccc1)NC(=O)[C@H](CCC(N)=O)NC(=O)[C@H](Cc1ccc(O)cc1)NC(=O)[C@H](CC(C)C)NC(=O)[C@H](Cc1ccccc1)NC(=O)[C@H](Cc1c[nH]cn1)NC(=O)[C@H](C)NC(=O)[C@H](CC(C)C)NC(=O)[C@H](CCCNC(=N)N)NC(=O)[C@H](CCC(N)=O)NC(=O)[C@@H](NC(=O)[C@@H](NC(=O)[C@@H]1CSSC[C@H](NC(=O)CN)C(=O)N[C@@H](CCCNC(=N)N)C(=O)N[C@@H](Cc2ccccc2)C(=O)NCC(=O)N[C@@H]([C@@H](C)O)C(=O)N1)[C@@H](C)O)C(C)C)[C@@H](C)O)C(C)C)[C@@H](C)O)C(=O)NCC(=O)N1CCC[C@H]1C(=O)N[C@@H](CCC(N)=O)C(=O)NCC(=O)N[C@@H](Cc1ccc(O)cc1)C(N)=O` [compound 364] (H-GCRFGTCTVQRLAHFLYQFTDKDKDNVAPRTNIGPQGY-NH2; disulfide 2-7): 10 pM.
